Measurements taken from patent US11028073B2, “Butylphthalide-telmisartan hybrids, preparation method and application thereof” (GUANGDONG LONGFU MEDICINE CO., LTD., priority 2017, dated 2021).

Experiments:
rats with tMCAO [1] = assay: Infarct volume (TTC staining) in rats with transient middle cerebral artery occlusion (tMCAO); format: in vivo, rat
Protocol: (§1) Experimental method: 75 SD male rats weighing 300±20 g were raised under the condition of 25° C. and relative humidity of 60% to 75% for 1 week for experiment. Rats were randomized into 5 groups: sham group, vehicle group, drug administration group at 24 h after ischemia, drug administration group at 6 h after ischemia, drug administration group at 4 h after ischemia, respectively, with 15 animals in each group.
(§2) Establishment of transient middle cerebral artery occlusion (tMCAO) rat model: The rats were anesthetized by intraperitoneal injection of chloral hydrate, and lying on an operating table with limbs fixed with string. […] ECA was ligated and cut off, ICA was clamped at the distal end with an arterial clip, and then a small opening was cut at the intersection of ECA and ICA near the ECA. A nylon thread with paraffin coated on one end was inserted from the small cut opening into the internal carotid artery at the intersection of the internal and external carotid arteries and further into the anterior cerebral artery at the proximal end, to block the blood supply to the middle cerebral artery on this side. At 120 minutes after ischemia, the nylon thread was withdrawn at the incision of the external carotid artery to achieve the reperfusion of the middle cerebral artery. The room temperature during surgery was controlled at 25 to 27° C.
(§3) Administration method: administrating after surgery with a concentration of 1 mg/kg. Drug administration group at 4 h after ischemia was administrated at 4 h after ischemia, and once again after 24 h. Drug administration group at 6 h after ischemia was administrated at 6 h after ischemia, and once again after 24 h. Drug administration group at 24 h after ischemia was administrated once at 24 h after ischemia.
(§4) After the time window for administration of 13 was determined, administration at 4 hour post-ischemia was selected as the subsequent testing time point. 95 SD male rats were randomized into 7 groups: sham group, vehicle group, NBP group, Telm group, NBP+Telm group, 13 group and edaravone group, respectively. The surgical procedure was as described above, NBP (1 mg/kg), Telm (1 mg/kg), NBP (1 mg/kg)+Telm (1 mg/kg), 13 (1 mg/kg) and edaravone (3 mg/kg) were administrated at 4 hour post-ischemia, and once again at 24 h, respectively. The infarct volume and neurobehavioral score were determined at 48 h post-ischemia.
At 48 h post-ischemia, the rats were anesthetized with pentobarbital sodium, decapitated to get brain quickly, olfactory bulb, cerebellum and lower brain stem were removed, and coronal was cut into 6 slices. Then the brain slices were placed in the solution containing 4% TTC and 1 mol/L of K2HPO4, incubated at 37° C. for 30 min in the dark, during which the brain slices were flipped every 7 to 8 min. […] Images were taken after staining, and the infarct volume was calculated using an image analysis software. The percentage of infarct volume is calculated by the following formula: infarct area/total brain cross-sectional area×100%.
(§5) The experimental method was manipulated as described in 2. At 30 min before the administration of I3, rats were intraperitoneally injected with 20 mg/kg of AMPK inhibitor Compound C, and the volume of the ipsilateral hemisphere infarct and the neurobehavioral score were determined at 48 h post-ischemia. Western blot analysis was performed on ischemic brain tissue to determine the content of phosphorylated AMPK (p-AMPK) in the cerebral cortex at the infarct side.
(§6) In FIG. 2, tMCAO models are established in male rats of 260 to 280 g (thread embolism is pulled out from the rats after 2 hour ischemia, resulting in reperfusion), 13 compound (1 mg/kg) is intravenously injected at 4 h post-ischemia, and intravenously injected again at 24 h post-ischemia. […]

rats with tMCAO [2] = assay: Neurobehavioral function score in tMCAO rats; format: in vivo, rat
Protocol: as §1, §2, §3, §4
The neurobehavioral function score of tMCAO rats were scored at 48 h after ischemia. Criteria for scoring is as follows: 0 point, no symptoms of nerve damage; 1 point, inability of fully extending forepaw at the healthy side; 2 points, circling to the healthy side; 3 points, tilting toward the healthy side; 4 points, inability of spontaneous walking and losing consciousness.
as §5, §6

Nrf2 = assay: Neh2-Luciferase reporter assay for Nrf2 activation in BV2 cells; format: cell-based; conditions: for activity of intracellular Nrf2 (luciferase): 24 h incubation, BV2 cells
Protocol: BV2 cells were transfected with Neh2-Luciferase reporter gene plasmid for 6 h, replaced a normal serum-containing medium and cultured for 24 h, then incubated with drug for 24 h, and treated with Reporter Lysis Buffer for 20 min. The Reporter Lysis Buffer was added to a 96-well plate, and the activity of luciferase was measured.
(§7) In FIGS. 1A and 1B, mouse primary microglia are pre-incubated with 1 μM or 5 μM of test compounds for 3 hours, then stimulated with LPS for 5 hours, and the protein content of pro-inflammatory factor TNF-α is determined by ELISA method. In FIG. 1C, the activations of the compounds on Nrf2 are tested by Luciferase Reporter Assay.

AMPK = assay: Western blot of phosphorylated AMPK (p-AMPK) in cerebral cortex at the infarct side of tMCAO rats; format: in vivo, rat; conditions: Compound C 20 mg/kg i.p. 30 min before I3
Protocol: as §5

[3] = tested on: rats with permanent middle cerebral artery occlusion; assay: Neurobehavioral score in pMCAO rats; format: in vivo, rat; conditions: for Neurobehavioral score: 72 h after ischemia
Protocol: (§8) Experimental method: Surgical method was described as the operation method for the above tMCAO. The thread embolism remained in the brain of rats without pulling out, and rotarod performance was tested every day. Brains were taken out at 72 h after ischemia for the determination of infarct volume and neurobehavioral score. The process of the rotarod performance test was as follows: rats were placed on a rotating rod of which the speed was accelerated from 4 rpm up to the maximum speed of 40 rpm within 5 minutes. Rats were trained for 3 to 7 days before model establishment, the rotarod performance was tested at 1, 2 and 3 days after pMCAO, respectively, and the falling time of rats were recorded.
(§9) In FIG. 3, pMCAO model is established on male rats of 260 to 280 g (thread embolism is not pulled out, resulting in permanent ischemia), the administration method is the same as that in FIG. 2, and the infract volume, neurobehavioral scores and rotarod test were determined at 72 h after ischemia, as described above.

[4] = tested on: rats with permanent middle cerebral artery occlusion; assay: Infarct volume in rats with permanent middle cerebral artery occlusion (pMCAO); format: in vivo, rat; conditions: for Infarction rate (%): 72 h after ischemia
Protocol: as §8, §9

[5] = tested on: rats with permanent middle cerebral artery occlusion; assay: Rotarod performance test in pMCAO rats; format: in vivo, rat; conditions: in s (unit assumed)
Protocol: as §8, §9

TNF-α = assay: LPS-induced TNF-α release in mouse primary microglia (ELISA); format: cell-based; conditions: 1 μM or 5 μM drug pre-administrated 3 h, then 100 ng/mL LPS 5 h; supernatant ELISA
Protocol: The primary microglia were extracted from the brain of mouse and cultured, were pre-administrated with 1 μM or 5 μM drugs for 3 h, and then stimulated with 100 ng/mL lipopolysaccharide (LPS) for 5 h. The supernatant of cell culture was extracted, and the expression level of TNF-α in the supernatant was determined by ELISA method.
as §7

[6] = administrated at 4 h post-ischemia and again at 24 h, 1 mg/kg (edaravone 3 mg/kg), determined 48 h post-ischemia
[7] = tMCAO rats, comparison groups, administrated at 4 h post-ischemia and again at 24 h, 1 mg/kg (edaravone 3 mg/kg), scored 48 h

CCCCC1OC(=O)c2ccccc21 (stereo not shown) [NBP, Butylphthalide]
Infarction rate (%) (rats with tMCAO [1]; [6]): 20.99% | Neurobehavioral score (rats with tMCAO [2]; [7]): 2.7

CCCCC(OC(C)=O)c1ccccc1C(=O)NCCCCCCNC(=O)c1ccccc1-c1ccc(Cn2c(CCC)nc3c(C)cc(-c4nc5ccccc5n4C)cc32)cc1 (stereo not shown) [I7, 6-N-{2-[(1-acetoxyl)n-pentyl]benzoyl}hexanediamine telmisartan amide]
melting point: 96 to 98 °C | activity of intracellular Nrf2 (luciferase) (Nrf2; 10 μM): significantly activate the activity of intracellular Nrf2

c1cc(-c2cnn3cc(-c4ccc(OCCN5CCCCC5)cc4)cnc23)ccn1 [Compound C, reference compound]
AMPK activity (p-AMPK content in cerebral cortex at the infarct side) (AMPK): inhibit the increase of AMPK activity induced by I3

CC1=NN(c2ccccc2)C(=O)C1 [Edaravone, reference compound]
Infarction rate (%) (rats with tMCAO [1]; [6]): 6.183% | Neurobehavioral score [3]: 1.7 | Neurobehavioral score (rats with tMCAO [2]; [7]): 1.556 | Infarction rate (%) [4]: 16.7% | Falling time ([5]; Before modeling (baseline)): 292.17 | Falling time ([5]; Day 1 after pMCAO): 56.33 | Falling time ([5]; Day 2 after pMCAO): 64.00 | Falling time ([5]; Day 3 after pMCAO): 74.00

CCCCC(OC(C)=O)c1ccccc1C(=O)OCCCCCCCCOC(=O)c1ccccc1-c1ccc(Cn2c(CCC)nc3c(C)cc(-c4nc5ccccc5n4C)cc32)cc1 (stereo not shown) [I6, 8-O-{2-[(1-acetoxyl)n-pentyl]benzoyl}octanediol telmisartan ester]
melting point: 83 to 84 °C

CCCCC(OC(C)=O)c1ccccc1C(=O)NCCCCNC(=O)c1ccccc1-c1ccc(Cn2c(CCC)nc3c(C)cc(-c4nc5ccccc5n4C)cc32)cc1 (stereo not shown) [I8, 4-N-{2-[(1-acetoxyl)n-pentyl]benzoyl}butanediamine telmisartan amide]
melting point: 97 to 99 °C | activity of intracellular Nrf2 (luciferase) (Nrf2; 10 μM): significantly activate the activity of intracellular Nrf2

CCCCC(OC(C)=O)c1ccccc1C(=O)OCCCCCCOC(=O)c1ccccc1-c1ccc(Cn2c(CCC)nc3c(C)cc(-c4nc5ccccc5n4C)cc32)cc1 (stereo not shown) [I5, 6-O-{2-[(1-acetoxyl)n-pentyl]benzoyl}hexanediol telmisartan ester]
melting point: 82 to 83 °C

Cc1c(-c2cnccn2)ssc1=S [Oltipraz, reference compound]
activation of Nrf2 (Nrf2; concentration not given): significantly promote the activation of Nrf2

CCCCC(OC(C)=O)c1ccccc1C(=O)NCCCCCCCCNC(=O)c1ccccc1-c1ccc(Cn2c(CCC)nc3c(C)cc(-c4nc5ccccc5n4C)cc32)cc1 (stereo not shown) [I3, 8-N-{2-[(1-acetoxyl)n-pentyl]benzoyl}octanediamine telmisartan amide]
Infarction rate (%) (rats with tMCAO [1]; 1 mg/kg administrated at 6 h after ischemia and once again after 24 h, determined 48 h post-ischemia): 13.07% | Infarction rate (%) (rats with tMCAO [1]; 1 mg/kg administrated once at 24 h after ischemia, determined 48 h post-ischemia): 20.72% | infarct volume compared with NBP group, Telm group and NBP+Telm group (rats with tMCAO [1]; 4 h post-ischemia): more pronounced effect on reducing the infarct volume | Infarction rate (%) (rats with tMCAO [1]; I3 1 mg/kg i.v. at 4 h after ischemia, with or without Compound C 20 mg/kg i.p. 30 min before, 48 h post-ischemia): 6.655% | Infarction rate (%) (rats with tMCAO [1]; [6]): 6.655% | infarct volume compared with vehicle group (rats with tMCAO [1]; administrating at each time point (4 h, 6 h, 24 h)): significantly reduced the infarct volume | AMPK activity (p-AMPK content in cerebral cortex at the infarct side) (AMPK): increase of AMPK activity | melting point: 94 to 95 °C | activity of intracellular Nrf2 (luciferase) (Nrf2; 1 μM): significantly activate the activity of intracellular Nrf2 | activity of intracellular Nrf2 (luciferase) (Nrf2; 10 μM): significantly activate the activity of intracellular Nrf2 | Neurobehavioral score [3]: 1.6 | neurobehavioral impairment ([3]; in words): improved neurobehavioral impairment | neurological function score compared with vehicle group (rats with tMCAO [2]; tMCAO (I/R) rats, administration at each time point): significantly reduced ischemia-induced neurological function score | Neurobehavioral score (rats with tMCAO [2]; tMCAO rats, 1 mg/kg, administrated after 4 h (time-window groups), scored 48 h after ischemia (0-4 points)): 2.385 | Neurobehavioral score (rats with tMCAO [2]; tMCAO rats, 1 mg/kg, administrated after 6 h, scored 48 h after ischemia (0-4 points)): 1.867 | Neurobehavioral score (rats with tMCAO [2]; tMCAO rats, 1 mg/kg, administrated after 24 h, scored 48 h after ischemia (0-4 points)): 1.182 | neurological function compared with NBP, Telm and NBP+Telm (rats with tMCAO [2]; tMCAO rats, 4 h post-ischemia): more pronounced effect on improving the neurological function | Neurobehavioral score (rats with tMCAO [2]; tMCAO rats, I3 1 mg/kg i.v. at 4 h after ischemia, with or without Compound C 20 mg/kg i.p. 30 min before, 48 h post-ischemia): 1.182 | Neurobehavioral score (rats with tMCAO [2]; [7]): 1.182 | Infarction rate (%) [4]: 12.48% | infarct volume ([4]; in words): significantly reduced the infarct volume | Falling time ([5]; Before modeling (baseline)): 279.10 | Falling time ([5]; Day 1 after pMCAO): 68.63 | Falling time ([5]; Day 2 after pMCAO): 94.00 | Falling time ([5]; Day 3 after pMCAO): 125.13 | LPS-induced TNF-α release in mouse primary microglia (TNF-α): significantly inhibit LPS-induced TNF-α release

CCCCC(OC(C)=O)c1ccccc1C(=O)OCCCCOC(=O)c1ccccc1-c1ccc(Cn2c(CCC)nc3c(C)cc(-c4nc5ccccc5n4C)cc32)cc1 (stereo not shown) [I2, 4-O-{2-[(1-acetoxyl)n-pentyl]benzoyl}butanediol telmisartan ester]
melting point: 83 °C

CCCCc1nc(C)c(C(=O)NCCCCCCCCNC(=O)c2ccccc2C(CCCC)OC(C)=O)n1Cc1ccc(-c2ccccc2-c2nnn[nH]2)cc1 (stereo not shown) [I17]
melting point: 197 to 199 °C

CCCCC(OC(C)=O)c1ccccc1C(=O)OCCCCCOC(=O)c1ccccc1-c1ccc(Cn2c(CCC)nc3c(C)cc(-c4nc5ccccc5n4C)cc32)cc1 (stereo not shown) [I4, 5-O-{2-[(1-acetoxyl)n-pentyl]benzoyl}pentanediol telmisartan ester]
melting point: 78 to 79 °C

CCCc1nc2c(C)cc(-c3nc4ccccc4n3C)cc2n1Cc1ccc(-c2ccccc2C(=O)O)cc1 [Telm, Telmisartan]
Infarction rate (%) (rats with tMCAO [1]; [6]): 11.57% | Neurobehavioral score (rats with tMCAO [2]; [7]): 1
